Columns and labels:
[1] = test system: CREB; assay: Aβ25-35-induced CREB phosphorylation in N2a cells (ELISA); assay type: cell-based; conditions: concomitant treatment 30 min
Procedure: 7. Measure the amount of total and phosphorylated CREB in cell lysates of N2a cells, by ELISA using the PathScan total CREB sandwich ELISA kit (Cell Signaling TECHNOLOGY) or the PathScan phosoho-CREB (Ser133) sandwich ELISA kit (Cell Signaling TECHNOLOGY), respectively. 8. Determine the optical density at 450 nm using a microplate reader.
N2a cells were treated concomitantly with Aβ25-35 and TTF for 30 min. Cells were extracted and the levels of phosphorylated (FIG. 15 A) or total (FIG. 15 B) CREB were determined by specific ELISA kits. The results are the mean±SEM of one experiment (n=2).
N2a cells were treated concomitantly with Aβ25-35 and AcA for 30 min. Cells were extracted and the levels of phosphorylated CREB were determined by A specific ELISA kit. The results are the mean±SEM of one experiment (n=2).

[2] = test system: N2a neuronal cells; assay: Glutamate-induced ROS elevation in N2a cells; assay type: cell-based; conditions: glutamate 100 μM, 20 hr
Procedure: 1. Plate N2a cells (10,000 cells/0.2 ml/well of 96 wells plate) in DMEM (high glucose, 225 ml), Opti-MEM (250 ml) containing 1% Fetal Bovine Serum, 2 mM L-Glutamine, 100 U/ml penicillin and 100 micrograms/mL streptomycin and incubate (37° C., 5% CO2) for 24 hr. 2. Replace growth medium with a fresh one containing 20 micromolars 2′7′-dichlorofluorescein diacetate (DCF-DA); 3. Incubate 30 min (37° C., 5% CO2); 4. Wash twice with PBS; 5. Replace with fresh medium; 6. Read fluorescence of “time 0” at 485 nm (Extinction) and 528 nm (Emmision). 7. Incubate the cultured cells for 2 hours with freshly diluted TTF or AcA of the invention; 8. Add freshly diluted glutamate (100 micromolars); 9. Read fluorescence at 20 hr after the addition of glutamate (100 micromolars) (Ex: 485 nm and Em: 528 nm). 10. A reduction of 55% of ROS levels are indication for an anti-oxidant activity in this assay.
N2a neuronal cells were treated with glutamate (100 μM) and TTF. ROS levels were measured 20 hr later. The results are shown in FIG. 17 and are the mean±SEM of two different experiments (n=16).
N2a neuronal cells were treated with glutamate (100 μM) and achillolide A. ROS levels were measured 20 hr later. […]
Achillolide A was added to N2a cells before (−2 h, −1 h) concomitant (0) or after (1 h, 2 h) the addition of glutamate. ROS levels were measured 20 h later. […]

[3] = test system: NO; assay: NO (nitrite) production by LPS-activated microglial cells (Griess); assay type: cell-based, rat; conditions: Rattus norvegicus; 40 μM (highest concentration tested); LPS 4.5 ng/mL, 20 h; read-out: inhibition of NO secretion
Procedure: Cultures of primary rat microglial cells were prepared from cerebral cortices of 1-2 day-old neonatal Wistar rats as described. Microglial cells were seeded at 24-well plastic plates at 1×10^5/well in RPMI-1640 containing 2% FBS, 2 mM glutamine, 100 U/mL penicillin, 100 µg/mL streptomycin, 1 mM sodium pyruvate, and 50 μM β-mercaptoethanol. Cells were cultured for 36 h before treatments. The research was conducted in accordance with the NIH guide for the care and use of laboratory animals, and was approved by the Institutional Animal Care and Use Committee of The Volcani Center, Agricultural Research Organization (IL-135/07, approval date Apr. 11, 2007). All efforts were made to minimize animal suffering, and to reduce the number of animals used.
For NO measurements, 1×10^5 microglial cells/well were plated in a 24-well tissue culture plate. Cells were stimulated with LPS (4.5 ng/mL) and concomitantly treated with achillolide A or a reference drug. NO levels in the culture medium were estimated with Griess reagent.
3. Activate microglial cells with lipopolysaccharide (LPS, 4.5 nanograms/mL);
In FIG. 21 A, microglial cells were treated with different concentrations of achillolide A, dexamethasone or memantine (as reference drugs) and were concomitantly activated by LPS (4.5 ng/mL) for 20 h. Cell conditioned supernatants were collected, and the levels of NO were measured using Griess reaction. Cytotoxicity was measured using the LDH method (FIG. 21B). Values represent the mean±SEM (n=12 for each treatment). ** p<0.01; ***p<0.001 relative to cells that were treated to LPS only.

Row | Structure (SMILES) | effect on Aβ25-35-induced phosphorylation of CREB [1] | effect on glutamate-induced ROS elevation [2] | inhibition at 40 µM [3] [%]
1 | C=C1CCC2=C(CO)C(=O)O[C@H]2/C=C(\C)[C@H](OC(C)=O)CC1=O [achillolide A] | down-regulates | prevents the elevation in ROS levels | 66
2 | CC12CC3CC(C)(C1)CC(N)(C3)C2 [memantine, reference compound] | – | – | 64
3 | COc1cc(-c2oc3cc(OC)c(OC)c(O)c3c(=O)c2O)ccc1O [TTF, 3,5,4′-trihydroxy-6,7,3′-trimethoxyflavone] | significantly inhibited | prevents the elevation in ROS levels | –

Reference: patent US11752125B2, “Anti-neuroinflammatory and protective compounds in Achillea fragrantissima” (THE STATE OF ISRAEL MINISTRY OF AGRICULTURE & RURAL …, priority 2013, dated 2023)
